Entries after “also recorded” stand apart in the source; their conditions may differ.
How the values were obtained:
Format in all cases: cell-based
isolated rat adipocytes [1] = assay: Glucose utilization (uptake) by isolated cultured rat adipocytes; conditions: for effect on glucose utilization (in words): insulin 0.16 to 1.6 nM
Description: (§1) Cell isolation/preparation: Adipocytes are prepared from epididymal fat pads from male Sprague-Dawley rats weighing 300-600 g. Epididymal fat depots are resected from halothane anesthetized rats under aseptic conditions and adipocytes are isolated by collagenase digestion by the Rodbell method (Rodbell M. Metabolism of isolated fat cells. I. Effects of hormones on glucose metabolism and lipolysis. J Biol Chem. 1964; 239: 375-380), with minor modifications as previously described (Mueller W M, Gregoire F M, Stanhope K L, Mobbs C V, Mizuno T M, Warden C H, Stem J S, Havel P J. Evidence that glucose metabolism regulates leptin secretion from isolated adipocytes. Endocrinology 139: 551-558, 1998; Mueller W M, Stanhope K L, Gregoire F, Evans J L, Havel P J. Effects of metformin and vanadium on leptin secretion from cultured rat adipocytes. Obesity Res. 8: 530-539, 2000; Medina E A, Stanhope K L, Mizuno T M, Mobbs C V, Gregoire F, Hubbard N E, Erickson K L, Havel P J. Effects of tumor necrosis factor alpha on leptin secretion and gene expression: relationship to changes of glucose metabolism in isolated rat adipocytes. Int J Obes Relat Metab Disord. 23: 896-903, 1999.). The isolated adipocytes are then incubated for 30 minutes at 37 C before being plated and cultured on Matrigel-coated plates.
(§2) Adipocyte Culture: Adipocytes are maintained in culture anchored to a basement membrane matrix (Matrigel, Becton Dickinson, Franklin Lakes, N.J.) or collagen from Cohesion Technologies, (Palo Alto, Calif.). Although all in vitro systems have inherent advantages and disadvantages, advantages of this system compared with cultures containing free-floating adipocytes are that the matrix simulates their normal basement membrane attachment and that the cells are maintained in close proximity to each other, allowing direct cell to cell contact. Together the cell contact and basement membrane attachment help to maintain differentiation, since adipocytes have a strong tendency to dedifferentiate in long-term (>24 h) culture. In addition, the matrix and the small amount of serum in the media both contain growth factors, which are also likely to help in maintaining cell differentiation. Furthermore, the adipocytes in this system are not exposed to toxic levels of oxygen at the interface of the media and the incubator atmosphere, as opposed to free-floating adipocytes which aggregate at the surface of the media. An advantage of the system over those containing minced adipose tissue is that all of the cells in the culture are equally exposed to the nutrients and the oxygen dissolved in the media. Thus, although clearly different from the in vivo situation, this system provides a more physiological environment than most systems for maintaining adipocytes in long-term culture.
(§3) In culturing each suspension, Matrigel is first thawed on ice to a liquid and uniformly applied to the surface of culture dishes (300 μl Matrigel/35 mm well). After the incubation period, 150 μl of the adipocyte suspension (2:1 ratio of packed cells to media) are plated on the Matrigel or collagen matrix. Adipocytes from each suspension are thoroughly mixed with a transfer pipette before plating to insure that a similar number adipocytes with a similar size distribution are added to the control and experimental wells for each suspension. The warmth of the added cells and buffer causes the Matrigel to gel around the adipocytes, or the neutralization of the acidic pH of the collagen solution to 7.0 solidifies the collagen, and both of these techniques effectively anchor the adipocytes to the culture dish. After a 30 minute incubation at 37° C., 2 ml of warm culture medium is added. The cells are maintained in an incubator at 37° C. for 96 hours with 6% CO2. Aliquots of adipocytes from each animal are divided into wells, with the different concentrations of insulin or other agents to be tested. In each plate an appropriate control well contains adipocytes from the same animal. […]

isolated rat adipocytes [2] = assay: Leptin secretion/production by isolated cultured rat adipocytes (RIA)
Description: as §1, §2, §3

cultured rat adipocytes = assay: Adiponectin secretion by isolated cultured rat adipocytes over 96 h
Description: Several studies have reported that thiazolidenediones (TZDs), agonists of PPARγ, increase adiponectin expression and circulating levels in animals (Maeda, 2001; Yamauchi, 2001a; Ye, 2003). TZD (10 μM Troglitazone) stimulated of adiponectin secretion from cultured rat adipocytes from 3 different depots (n=6). Mesenteric fat produced the largest amount of adiponectin over 96 hours in culture. (FIG. 5A). Adiponectin secretion from both the control- and TZD-treated adipocytes was well correlated with the glucose utilization (control, r=0.79; p<0.001); (TZD-treated, r=0.84, p=<0.0001, FIG. 5B) showing that, similar to leptin production, glucose metabolism also is involved in the regulation of adiponectin production by adipocytes.
Insulin increased adiponectin production from 3 different fat depots, however as in the experiments with troglitazone, the mesenteric depot produced the most adiponectin (FIG. 6B). Like leptin, both basal and insulin-stimulated adiponectin secretion was highly correlated to glucose utilization (r=0.91, p<0.0001) (FIG. 6C), and inversely related to the proportion of glucose metabolized to lactate (r=−0.81, p<0.0001) (FIG. 6D).
Also paralleling the regulation of leptin, adiponectin secretion by isolated cultured adipocytes was increased during 96 h culture by inhibitors of PDH-K. DTNB (100 μM) increased adiponectin secretion by 40% (p<0.03, n=6, FIG. 7A). DCA (2 mM) increased adiponectin secretion by 23% (p<0.025, n=6, FIG. 7B). The increase in adiponectin induced by DTNB was highly correlated with glucose utilization (r=0.95, p<0.004). Furthermore in adipocytes transfected with antisense directed at PDH-K, adiponectin secretion was stimulated by 24.3±8.4%, p<0.05, n=7, FIG. 7C).
as §1
Adipocyte Culture: Adipocytes are maintained in culture anchored to a basement membrane matrix (Matrigel, Becton Dickinson, Franklin Lakes, N.J.) or collagen from Cohesion Technologies, (Palo Alto, Calif.). […]

[3] = DTNB 100.0 μM + insulin 0.48 nM vs control (insulin only)
[4] = DTNB 100.0 μM + insulin 0.48 nM, isolated rat adipocytes, 96 h culture

Molecule	Change in Parameter: Glucose Uptake (μg) over 96 h (isolated rat adipocytes [1]; [3])	Glucose Uptake (μg) over 96 h (isolated rat adipocytes [1]; [4]) [µg]	effect on total / insulin-mediated glucose utilization (in words) (isolated rat adipocytes [1]; DTNB 100 μM, NEM 0.1 μM, DCA 2 mM)	% ΔLeptin Produced over 96 h (isolated rat adipocytes [2]; [3])	% Δ[Leptin] (ng/ml) at 96 h (isolated rat adipocytes [2]; [3])	Change in Parameter: Leptin (ng) Produced over 96 h (isolated rat adipocytes [2]; [3])	Change in Parameter: [Leptin] (ng/ml) at 96 h (isolated rat adipocytes [2]; [3])	Leptin (ng) Produced over 96 h (isolated rat adipocytes [2]; [4]) [ng]	[Leptin] (ng/ml) at 96 h (isolated rat adipocytes [2]; [4]) [ng/mL]	effect on leptin production/secretion (in words) (isolated rat adipocytes [2]; PDH kinase inhibitors DTNB, NEM, DCA, cultured adipocytes)	increase of leptin production/secretion (isolated rat adipocytes [2]; PDH kinase inhibitors vs control: DTNB 100 μM, NEM 0.1 μM, DCA 2 mM, cultured adipocytes)	increase of adiponectin secretion (cultured rat adipocytes; DTNB 100 μM, DCA 2 mM, 96 h culture, n=6) [%]	effect on adiponectin secretion (in words) (cultured rat adipocytes; PDH kinase inhibitors DTNB and DCA)	effect on glucose utilization (in words) (isolated rat adipocytes [1])	effect on glucose utilization (in words) (isolated rat adipocytes [1]; listed as Insulin)	effect on leptin secretion (in words) (isolated rat adipocytes [2]; insulin 0.16 to 1.6 nM)	adiponectin secretion, 96 hr total (cultured rat adipocytes; 1.6 nM insulin, control 179.9±35.3 ng, n=6) [ng]	effect on adiponectin secretion (in words) (cultured rat adipocytes; insulin (1.6 nM), 96 hour culture)
O=C(O)c1cc(SSc2ccc([N+](=O)[O-])c(C(=O)O)c2)ccc1[N+](=O)[O-] [DTNB, 5,5′-Dithiobis(2-nitrobenzoate)]	+348 ± 114 μg	1384 ± 94	increased	+57.3 ± 5.8%	+60.2 ± 8.3%	+18.4 ± 2.3 ng	+6.3 ± 0.8 ng/ml	55.6 ± 2.9	17.2 ± 0.9	most potent stimulator; also recorded: increase	approximately 60%	40	increase					
insulin														concentration dependent increase	increases	concentration-dependent increases; also recorded: concentration dependent increase	312.3 ± 44	significant increase; also recorded: increases

— patent US20070203225A1, “METHOD OF INCREASING ENDOGENOUS ADIPONECTIN PRODUCTION AND LEPTIN PRODUCTION” (priority 2001, published 2007)
